Several values for one entry are separate records, joined by “and”; a condition that tells them apart may be missing. Equal entries are not always repeated. Toxic doses and inconclusive results are not listed.
Tested on: P388 leukemia ip, CD2F1 mice, survival T/C
Test: NCI In Vivo Anticancer Drug Screen. Data for tumor model P388 Leukemia (intraperitoneal) in CD2F1 (CDF1) mice
Details: endpoint: median survival time, higher = longer survival
Summary of the method: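 Mice carrying the transplanted tumor received test compound or vehicle. Survival was recorded in each group, and the value is the treated-group measurement divided by that of the vehicle-treated control group.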

[1] = dose: 12.5 mg/kg/injection, schedule: Q01DX009 (ip), vehicle: Klucel (hydroxypropylcellulose) (HPC)
[2] = dose: 25.0 mg/kg/injection, schedule: Q01DX009 (ip), vehicle: Klucel (hydroxypropylcellulose) (HPC)
[3] = dose: 50.0 mg/kg/injection, schedule: Q01DX009 (ip), vehicle: Klucel (hydroxypropylcellulose) (HPC)
[4] = dose: 100.0 mg/kg/injection, schedule: Q04DX003 (ip), vehicle: saline with Tween-80
[5] = dose: 200.0 mg/kg/injection, schedule: Q04DX003 (ip), vehicle: saline with Tween-80
[6] = dose: 400.0 mg/kg/injection, schedule: Q04DX003 (ip), vehicle: saline with Tween-80
[7] = dose: 60.0 mg/kg/injection, schedule: Q01DX005 (ip), vehicle: saline with Tween-80
[8] = dose: 120.0 mg/kg/injection, schedule: Q01DX005 (ip), vehicle: saline with Tween-80
[9] = dose: 240.0 mg/kg/injection, schedule: Q01DX005 (ip), vehicle: saline with Tween-80
[10] = dose: 7.5 mg/kg/injection, schedule: Q01DX005 (ip), vehicle: Klucel (hydroxypropylcellulose) (HPC)
[11] = dose: 15.0 mg/kg/injection, schedule: Q01DX005 (ip), vehicle: Klucel (hydroxypropylcellulose) (HPC)
[12] = dose: 50.0 mg/kg/injection, schedule: Q01DX009 (ip), vehicle: saline with Tween-80
[13] = dose: 100.0 mg/kg/injection, schedule: Q01DX009 (ip), vehicle: saline with Tween-80
[14] = dose: 200.0 mg/kg/injection, schedule: Q01DX009 (ip), vehicle: saline with Tween-80
[15] = dose: 25.0 mg/kg/injection, schedule: Q01DX009 (ip), vehicle: saline with Tween-80
[16] = dose: 25.0 mg/kg/injection, schedule: Q01DX005 (ip), vehicle: saline with Tween-80
[17] = dose: 100.0 mg/kg/injection, schedule: Q01DX005 (ip), vehicle: saline with Tween-80
[18] = dose: 50.0 mg/kg/injection, schedule: Q01DX005 (ip), vehicle: saline with Tween-80
[19] = dose: 200.0 mg/kg/injection, schedule: Q01DX005 (ip), vehicle: saline with Tween-80
[20] = dose: 100.0 mg/kg/injection, schedule: Q01DX001 (ip), vehicle: saline with Tween-80

SMILES: CC/C=C/c1cc2ccccc2c(=O)o1
- T/C [1]: 106 % of control
- T/C [2]: 114 % of control
- T/C [3]: 100 % of control
- T/C (dose: 100.0 mg/kg/injection, schedule: Q01DX009 (ip), vehicle: Klucel (hydroxypropylcellulose) (HPC)): 110 % of control

SMILES: CC(=O)[C@H]1CC[C@H]2[C@@H]3C[C@H](C)C4=CC(=O)CC[C@]4(C)[C@@]3(F)[C@@H](O)C[C@]12C
- T/C [4]: 95 % of control
- T/C [5]: 87 % of control
- T/C [6]: 100 % of control

SMILES: Cc1cc2nc(CC(=O)c3ccccc3)c(=O)[nH]c2cc1C
- T/C [7]: 90 % of control
- T/C [8]: 90 % of control
- T/C [9]: 87 % of control

SMILES: CN(C)CCNC1=CC(=O)c2ccccc2C1=O
- T/C (dose: 12.5 mg/kg/injection, schedule: Q01DX009 (ip), vehicle: distilled water + Tween-80): 94 % of control
- T/C (dose: 25.0 mg/kg/injection, schedule: Q01DX009 (ip), vehicle: distilled water + Tween-80): 101 % of control
- T/C (dose: 50.0 mg/kg/injection, schedule: Q01DX009 (ip), vehicle: distilled water + Tween-80): 100 % of control
- T/C (dose: 100.0 mg/kg/injection, schedule: Q01DX009 (ip), vehicle: distilled water + Tween-80): 97 % of control

SMILES: CC(C)=Cc1cc(-c2cc(C=C(C)C)nc(N)n2)nc(N)n1
- T/C (dose: 60.0 mg/kg/injection, schedule: Q01DX005 (ip), vehicle: saline): 97 % of control
- T/C (dose: 120.0 mg/kg/injection, schedule: Q01DX005 (ip), vehicle: saline): 94 % of control

SMILES: COc1ccc(/C=C/C(=O)c2cc(O)cc(OC)c2)cc1
- T/C (dose: 6.25 mg/kg/injection, schedule: Q01DX009 (ip), vehicle: Klucel (hydroxypropylcellulose) (HPC)): 101 % of control
- T/C [1]: 96 % of control
- T/C [2]: 101 % of control
- T/C [3]: 110 % of control

SMILES: CCOC1OCN(C)CC1(C)C (configuration not stated)
- T/C (dose: 50.0 mg/kg/injection, schedule: Q04DX003 (ip), vehicle: saline): 109 % of control
- T/C (dose: 100.0 mg/kg/injection, schedule: Q01DX009 (ip), vehicle: saline): 150 % of control
- T/C (dose: 100.0 mg/kg/injection, schedule: Q04DX003 (ip), vehicle: saline): 113 % of control
- T/C (dose: 200.0 mg/kg/injection, schedule: Q04DX003 (ip), vehicle: saline): 109 % of control

SMILES: CCOc1c(N=Nc2ccccc2O)c(C)nn1C(N)=S
- T/C (dose: 3.75 mg/kg/injection, schedule: Q01DX005 (ip), vehicle: Klucel (hydroxypropylcellulose) (HPC)): 103 % of control
- T/C [10]: 102 % of control
- T/C [11]: 104 % of control and 95 % of control

SMILES: Cc1ccc2c(c1)c(N=NC(N)=S)c(O)n2C1OC(CO)C(O)C(O)C1O (configuration not stated)
- T/C (dose: 32.0 mg/kg/injection, schedule: Q01DX009 (ip), vehicle: saline with Tween-80): 102 % of control
- T/C (dose: 64.0 mg/kg/injection, schedule: Q01DX009 (ip), vehicle: saline with Tween-80): 95 % of control
- T/C (dose: 128.0 mg/kg/injection, schedule: Q01DX009 (ip), vehicle: saline with Tween-80): 98 % of control

SMILES: O=C(NC1CCCCC1)O/N=C/c1ccccn1
- T/C (dose: 50.0 mg/kg/injection, schedule: Q01DX001 (ip), vehicle: other): 95 % of control
- T/C (dose: 100.0 mg/kg/injection, schedule: Q01DX001 (ip), vehicle: other): 95 % of control
- T/C (dose: 200.0 mg/kg/injection, schedule: Q01DX001 (ip), vehicle: other): 100 % of control

SMILES: C1=CC(=C(C2CCC(Nc3ccccc3)CC2)C2CCC(Nc3ccccc3)CC2)C=CC1=Nc1ccccc1 (configuration not stated)
- T/C [12]: 100 % of control
- T/C [13]: 109 % of control
- T/C [14]: 109 % of control

SMILES: O=[n+]1cc2ccccn2cc1-c1ccccc1
- T/C [13]: 90 % of control
- T/C [14]: 95 % of control
- T/C (dose: 400.0 mg/kg/injection, schedule: Q01DX009 (ip), vehicle: saline with Tween-80): 118 % of control

SMILES: CC1=NCCN=C(C)C1N=Nc1ccc(S(=O)(=O)Nc2ncccn2)cc1
- T/C [4]: 96 % of control
- T/C [5]: 93 % of control
- T/C [6]: 99 % of control

SMILES: Cc1cc(N=C2C=CC(=[N+](C)C)C=C2)c(N)cc1N
- T/C [15]: 107 % of control
- T/C [12]: 107 % of control

SMILES: COc1cc2c[n+](C)c3c(c2cc1OC)Cc1cc2c(cc1-3)OCO2
- T/C [16]: 151 % of control
- T/C (dose: 50.0 mg/kg/injection, schedule: Q01DX005 (ip), vehicle: saline): 174 % of control
- T/C [17]: 168 % of control

SMILES: ClCCN(CCCl)c1ccc(CNCCCNCc2ccc(N(CCCl)CCCl)cc2)cc1
- T/C (dose: 2.5 mg/kg/injection, schedule: Q01DX009 (ip), vehicle: saline sonified): 152 % of control
- T/C (dose: 5.0 mg/kg/injection, schedule: Q01DX009 (ip), vehicle: saline sonified): 95 % of control

SMILES: O=C1c2ccccc2-c2c1c1ccccc1c(=O)n2Cc1ccccc1
- T/C (dose: 6.25 mg/kg/injection, schedule: Q01DX005 (ip), vehicle: saline with Tween-80): 101 % of control
- T/C (dose: 12.5 mg/kg/injection, schedule: Q01DX005 (ip), vehicle: saline with Tween-80): 101 % of control
- T/C [16]: 104 % of control

SMILES: N#Cc1c2c(c(=O)n3c1[nH]c1ccccc13)CCC2
- T/C [7]: 100 % of control
- T/C [8]: 93 % of control
- T/C [9]: 94 % of control

SMILES: Clc1ccc(CN2CCCN(Cc3ccc(Cl)cc3)C2c2cc3ccccc3c3ccccc23)cc1
- T/C [18]: 99 % of control
- T/C [17]: 97 % of control
- T/C [19]: 93 % of control

SMILES: CCc1nc(N)nc(N)c1-c1ccc(NC)c([N+](=O)[O-])c1
- T/C (dose: 100.0 mg/kg/injection, schedule: Q01DX005 (ip), vehicle: Klucel (hydroxypropylcellulose) (HPC)): 182 % of control

SMILES: O=C1NC(=S)N/C1=C/c1ccc2c(c1)CCC2
- T/C [20]: 100 % of control
- T/C (dose: 200.0 mg/kg/injection, schedule: Q01DX001 (ip), vehicle: saline with Tween-80): 100 % of control
- T/C (dose: 400.0 mg/kg/injection, schedule: Q01DX001 (ip), vehicle: saline with Tween-80): 95 % of control

SMILES: COc1ccc(Oc2c(OC)cc(NCc3ccc(CN)cc3)c3ncccc23)cc1
- T/C (dose: 12.5 mg/kg/injection, schedule: Q01DX009 (ip), vehicle: saline with Tween-80): 110 % of control
- T/C [15]: 109 % of control
- T/C [12]: 109 % of control

SMILES: c1ccc2c(SCCCCCCCCCCCSc3c4ccccc4nc4ccccc34)c3ccccc3nc2c1
- T/C (dose: 60.0 mg/kg/injection, schedule: Q01DX005 (ip), vehicle: Klucel (hydroxypropylcellulose) (HPC)): 106 % of control
- T/C (dose: 120.0 mg/kg/injection, schedule: Q01DX005 (ip), vehicle: Klucel (hydroxypropylcellulose) (HPC)): 101 % of control
- T/C (dose: 240.0 mg/kg/injection, schedule: Q01DX005 (ip), vehicle: Klucel (hydroxypropylcellulose) (HPC)): 90 % of control

SMILES: COc1ccc(/C=C/C(C)=N/NC(N)=O)cc1OC
- T/C [18]: 102 % of control
- T/C [17]: 102 % of control
- T/C [19]: 106 % of control

SMILES: Cc1[nH]c2ccc(N(C)C)cc2c(=O)c1CN(Cc1ccccc1)Cc1c(C)[nH]c2ccc(N(C)C)cc2c1=O
- T/C [10]: 94 % of control
- T/C [11]: 89 % of control
- T/C (dose: 30.0 mg/kg/injection, schedule: Q01DX005 (ip), vehicle: Klucel (hydroxypropylcellulose) (HPC)): 86 % of control

SMILES: C=CC[n+]1ccc2ccccc2c1
- T/C (dose: 25.0 mg/kg/injection, schedule: Q01DX009 (ip), vehicle: saline sonified): 90 % of control
- T/C (dose: 50.0 mg/kg/injection, schedule: Q01DX009 (ip), vehicle: saline sonified): 90 % of control
- T/C (dose: 100.0 mg/kg/injection, schedule: Q01DX009 (ip), vehicle: saline sonified): 95 % of control

SMILES: C=CC(c1ccccc1)C(O)(Cc1ccccc1)Cc1ccccc1 (configuration not stated)
- T/C (dose: 6.25 mg/kg/injection, schedule: Q01DX009 (ip), vehicle: DMSO): 104 % of control
- T/C (dose: 12.5 mg/kg/injection, schedule: Q01DX009 (ip), vehicle: DMSO): 99 % of control
- T/C (dose: 25.0 mg/kg/injection, schedule: Q01DX009 (ip), vehicle: DMSO): 95 % of control

SMILES: Nc1cnccc1Nc1ccncc1
- T/C (dose: 50.0 mg/kg/injection, schedule: Q01DX001 (ip), vehicle: saline with Tween-80): 95 % of control
- T/C [20]: 100 % of control

Reference: PubChem BioAssay AID330 (DTP/NCI, 2004)
